The values that follow come from patent US11780826B2 (Amgen Inc., priority 2017, dated 2023).

For this assay, the system named is Bovine cardiac myofibrils. Briefly: In vitro model of dose-dependent myofibril ATPase modulation (AC1.4, pyruvate kinase/lactate dehydrogenase-coupled ATPase assay at pCa25). The conditions noted are these: concentration at which ATPase activity was 1.4-fold higher than the bottom of the dose curve, mean of a minimum of two independent tests. Format: biochemical. Summed up:
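ATP turnover tracked as NADH absorbance loss at 340 nm, coupled via pyruvate kinase/lactate dehydrogenase, with 1 mM ATP, 2 mM MgCl2 and 12 mM K-PIPES at pH 6.80 (22° C) under EGTA/CaCl2 calcium buffering. Substrate was detergent-treated bovine cardiac myofibrils; 4-parameter curve fit, AC1.4 averaged over at least two runs.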
Take `N#CC1CN(S(=O)(=O)c2cccc(C(=O)N3CCC[C@@H]3C(=O)N[C@@H](c3ccc(S(F)(F)(F)(F)F)cc3)C3CC3)c2)C1` [Example 52, 1-(3-((3-cyano-1-azetidinyl)sulfonyl)benzoyl)-N-((R)-cyclopropyl(4-(pentafluoro-lambda~6~-sulfanyl)phenyl)methyl)-D-prolinamide]: the AC1.4 stood at 0.05535 µM.

`COc1ccc(S(C)(=O)=O)cc1C(=O)N1[C@@H](C(=O)N[C@@H](c2ccc(C(F)(F)F)cc2F)C2CC2)C[C@H]2C[C@H]21` [Example 612, (1R,3R,5R)-N-((R)-cyclopropyl(2-fluoro-4-(trifluoromethyl)phenyl)methyl)-2-(2-methoxy-5-(methylsulfonyl)benzoyl)-2-azabicyclo[3.1.0]hexane-3-carboxamide] displayed an AC1.4 of 3.527 µM. The figure for `CC(=O)N1CC(NS(=O)(=O)N2CCC[C@H](C(=O)N3CCC[C@@H]3C(=O)NCc3ccc(C(F)(F)F)cc3)C2)C1` [Example 806, 1-(((3S)-1-((l-acetyl-3-azetidinyl)sulfamoyl)-3-piperidinyl)carbonyl)-N-(4-(trifluoromethyl)benzyl)-D-prolinamide] is 10 µM. Consider `CS(=O)(=O)N1CCC[C@H](C(=O)N2[C@@H](C(=O)N[C@@H](c3cc(F)c(Cl)cc3F)C3CC3)C[C@H]3C[C@H]32)C1` [Example 277, (1R,3R,5R)-N-((R)-(4-chloro-2,5-difluorophenyl)(cyclopropyl)methyl)-2-(((3S)-1-(methylsulfonyl)-3-piperidinyl)carbonyl)-2-azabicyclo[3.1.0]hexane-3-carboxamide], for which the AC1.4 came to 0.7027 µM. With `N#CC1CN(S(=O)(=O)N2CCO[C@H](C(=O)N3CCC[C@@H]3C(=O)NCc3ccc(C(F)(F)F)cc3F)C2)C1` [Example 116] the figure was 0.179 µM; with `O=C(O[C@@H]1C[C@H](C(=O)N[C@@H](c2cc(F)c(Cl)cc2F)C2COC2)N(C(=O)c2ccnc(C(F)(F)F)c2)C1)c1ccnc(C(F)(F)F)c1` [Example 493, (3R,5R)-5-(((R)-(4-chloro-2,5-difluorophenyl)(3-oxetanyl)methyl)carbamoyl)-1-((2-(trifluoromethyl)-4-pyridinyl)carbonyl)-3-pyrrolidinyl2-(trifluoromethyl)-4-pyridinecarboxylate], 2.271 µM. With `COC(=O)CN(C)S(=O)(=O)c1cccc(C(=O)N2CCC[C@@H]2C(=O)NCc2ccc(C(F)(F)F)cc2)c1` [Example 346, methyl (R)-2-(N-methyl-3-(2-((4-(trifluoromethyl)benzyl)carbamoyl)pyrrolidine-1-carbonyl)phenylsulfonamido)acetate] the figure was 1.0139 µM; with `CC(NC(=O)[C@@H](C)N(C)C(=O)c1cccc(S(=O)(=O)N2CC(C#N)C2)c1)c1ccc(Cl)cc1` (stereo partly drawn) [Example 298, N-((2R)-1-((1-(4-chlorophenyl)ethyl)amino)-1-oxopropan-2-yl)-3-((3-cyanoazetidin-1-yl)sulfonyl)-N-methylbenzamide], 0.7905 µM; with `C[C@@H](NC(=O)[C@H]1CCCN1C(=O)c1cccc(S(C)(=O)=O)c1)c1cc(F)c(Cl)cc1F` [Example 636, N-((1R)-1-(4-chloro-2,5-difluorophenyl)ethyl)-1-(3-(methylsulfonyl)benzoyl)-D-prolinamide], 3.919 µM.

Consider `COc1ccc(S(C)(=O)=O)cc1C(=O)N1[C@@H](C(=O)N[C@@H](c2ccc(C(F)(F)F)cc2)C2COC2)C[C@H]2C[C@H]21` [Example 808, (1R,3R,5R)-2-(2-methoxy-5-(methylsulfonyl)benzoyl)-N-((R)-3-oxetanyl(4-(trifluoromethyl)phenyl)methyl)-2-azabicyclo[3.1.0]hexane-3-carboxamide], for which the AC1.4 amounted to 4.6765 µM. The figure for `CS(=O)(=O)c1cc(C(=O)N2CCC[C@@H]2C(=O)NC(c2ccc(C(F)(F)F)cc2F)C2CC2)ccn1` (stereo partly drawn) [Example 761, (2R)-N-(cyclopropyl(2-fluoro-4-(trifluoromethyl)phenyl)methyl)-1-(2-(methylsulfonyl)isonicotinoyl)pyrrolidine-2-carboxamide] is 7.696 µM. With `CC(C)(C)c1cccc(C(=O)N2[C@@H](C(=O)N[C@@H](c3ccc(C(F)(F)F)cc3F)C3COC3)C[C@H]3C[C@H]32)c1` [Example 213, (1R,3R,5R)-N-((R)-(2-fluoro-4-(trifluoromethyl)phenyl)(3-oxetanyl)methyl)-2-(3-(2-methyl-2-propanyl)benzoyl)-2-azabicyclo[3.1.0]hexane-3-carboxamide] the figure was 0.4603 µM; with `CS(=O)(=O)c1cccc(C(=O)N2CC[C@@H](F)[C@@H]2C(=O)N[C@@H](c2ccc(C(F)(F)F)cc2)C2CC2)c1` [Example 756, (3R)-N-((R)-cyclopropyl(4-(trifluoromethyl)phenyl)methyl)-3-fluoro-1-(3-(methylsulfonyl)benzoyl)-D-prolinamide], 7.5875 µM; with `N#CC1CN(S(=O)(=O)N2CCC[C@H](C(=O)N3CCC[C@@H]3C(=O)NCc3ncc(C(F)(F)F)cc3F)C2)C1` [Example 515, 1-(((3S)-1-((3-cyano-1-azetidinyl)sulfonyl)-3-piperidinyl)carbonyl)-N-((3-fluoro-5-(trifluoromethyl)-2-pyridinyl)methyl)-D-prolinamide], 2.441 µM.

`O=C(NCc1ccc(C(F)(F)F)nc1)[C@H]1CCCCN1C(=O)c1cccc(S(=O)(=O)N2CC(F)(F)C2)c1` [Example 798, (2R)-1-((3-((3,3-difluoro-1-azetidinyl)sulfonyl)phenyl)carbonyl)-N-((6-(trifluoromethyl)-3-pyridinyl)methyl)-2-piperidinecarboxamide]: the AC1.4 was 9.448 µM.

As to `O=C(N[C@@H](c1cc(F)c(C(F)(F)F)cc1F)[C@H]1C[C@@H](O)C1)[C@H]1C[C@H]2C[C@H]2N1C(=O)c1ccnc(C(F)F)c1` (stereo in doubt) [Example 830, (1R,3R,5R)-N-((R)-(2,5-difluoro-4-(trifluoromethyl)phenyl)((1s,3S)-3-hydroxycyclobutyl)methyl)-2-(2-(difluoromethyl)isonicotinoyl)-2-azabicyclo[3.1.0]hexane-3-carboxamide], the AC1.4 turned out to be 0.6694 µM. Regarding `N#CC1CN(S(=O)(=O)N2CCC[C@H](C(=O)N3CCC[C@@H]3C(=O)N[C@H](c3ccc(C(F)(F)F)cc3)C(F)(F)F)C2)C1` [Example 768, 1-(((3S)-1-((3-cyano-1-azetidinyl)sulfonyl)-3-piperidinyl)carbonyl)-N-((1R)-2,2,2-trifluoro-1-(4-(trifluoromethyl)phenyl)ethyl)-D-prolinamide], the AC1.4 came out at 8.033 µM. The figure for `Cc1ccc(CNC(=O)[C@H]2CCCN2C(=O)[C@H]2CCCN(S(=O)(=O)N3CC(C#N)C3)C2)cc1C` [Example 336, 1-(((3S)-1-((3-cyano-1-azetidinyl)sulfonyl)-3-piperidinyl)carbonyl)-N-(3,4-dimethylbenzyl)-D-prolinamide] is 0.9372 µM.

As to `N#CC1CN(S(=O)(=O)N2CCC[C@H](C(=O)N3CCC[C@@H]3C(=O)NCc3cccc(F)c3)C2)C1` [Example 496, 1-(((3S)-1-((3-cyano-1-azetidinyl)sulfonyl)-3-piperidinyl)carbonyl)-N-(3-fluorobenzyl)-D-prolinamide], the AC1.4 was 2.291 µM. Consider `COC[C@H](NC(=O)[C@H]1CCCN1C(=O)[C@H]1CCCN(S(=O)(=O)N2CC(C#N)C2)C1)c1cccc(C(F)(F)F)c1` [Example 388, 1-(((3S)-1-((3-cyano-1-azetidinyl)sulfonyl)-3-piperidinyl)carbonyl)-N-((1R)-2-methoxy-1-(3-(trifluoromethyl)phenyl)ethyl)-D-prolinamide,1-(((3S)-1-((3-cyano-1-azetidinyl)sulfonyl)-3-piperidinyl)carbonyl)-N-((1S)-2-methoxy-1-(3-(trifluoromethyl)phenyl)ethyl)-D-prolinamide], for which the AC1.4 is 1.3405 µM.

For `N#CC1CN(S(=O)(=O)N2CCC[C@H](C(=O)N3CCC[C@@H]3C(=O)N[C@@H](c3ccc(S(F)(F)(F)(F)F)cc3)C3CC3)C2)C1` [Example 117, 1-(((3S)-1-((3-cyano-1-azetidinyl)sulfonyl)-3-piperidinyl)carbonyl)-N-((R)-cyclopropyl(4-(pentafluoro-lambda~6~-sulfanyl)phenyl)methyl)-D-prolinamide], the AC1.4 is 0.179 µM.

The compound `O=C(N[C@@H](c1ccc(C(F)(F)F)cc1F)C1CC1)[C@H]1CCCN1C(=O)c1cccc(Cl)c1` [Example 378, 1-(3-chlorobenzoyl)-N-((R)-cyclopropyl(2-fluoro-4-(trifluoromethyl)phenyl)methyl)-D-prolinamide] gave an AC1.4 of 1.227 µM.

For the compound `CS(=O)(=O)c1ccc(C(=O)N2CCC[C@@H]2C(=O)N[C@@H](c2ccc(C(F)(F)F)cc2F)C2CC2)cn1` [Example 505, N-((R)-cyclopropyl(2-fluoro-4-(trifluoromethyl)phenyl)methyl)-1-((6-(methylsulfonyl)-3-pyridinyl)carbonyl)-D-prolinamidev], the AC1.4 came to 2.1945 µM. With `O=C(NCc1ccc(C(F)(F)F)cc1)[C@H]1CCCN1C(=O)[C@H]1CCCN(S(=O)(=O)N2CCC(F)(F)C2)C1` [Example 773, 1-(((3S)-1-((3,3-difluoro-1-pyrrolidinyl)sulfonyl)-3-piperidinyl)carbonyl)-N-(4-(trifluoromethyl)benzyl)-D-prolinamide] the figure was 8.21 µM; with `CC[C@@H](NC(=O)[C@H]1CCCN1C(=O)c1cccc(S(C)(=O)=O)c1)c1cc(F)c(Cl)cc1F` [Example 453, N-((1R)-1-(4-chloro-2,5-difluorophenyl)propyl)-1-(3-(methylsulfonyl)benzoyl)-D-prolinamide], 1.5515 µM; with `CS(=O)(=O)c1cncc(C(=O)N2[C@@H](C(=O)N[C@@H](c3cc(F)c(Cl)cc3F)C(F)F)C[C@H]3C[C@H]32)c1` [Example 817, (1R,3R,5R)-N-((S)-1-(4-chloro-2,5-difluorophenyl)-2,2-difluoroethyl)-2-(5-(methylsulfonyl)nicotinoyl)-2-azabicyclo[3.1.0]hexane-3-carboxamide], 9.115 µM.
